Measured values taken from patent US9884851B2, “Heterocycle-bisamide inhibitors of scavenger receptor BI” (THE BROAD INSTITUTE, INC., priority 2012, dated 2018).
Where “and” joins values, the source holds several entries; their conditions need not be identical. Equal entries are not always repeated. Entries after “also recorded” stand apart in the source; their conditions may differ.

Key:
hepatitis C virus (HCV) = assay: In vitro testing with Huh-7.5 cells infected with HCV; assay type: cell-based; conditions: for inhibition of HCV replication (in words): Huh-7.5 cells infected with Jcl 378-1 TagRFP (MOI=0.1), 3 dpi
Experimental: A series of tests were conducted using the compound of Formula II (CID53393835/ML279), other known inhibitors of SR-BI and controls with cells infected with hepatitis C virus (HCV). The cells (Huh-7.5 cells infected with Jcl 378-1 TagRFP (MOI=0.1) 3 dpi) were treated with the following SR-BI compounds and controls:
Three different infection protocols were followed: (1) no wash—virus inoculum was removed 4hpi and fresh medium containing compounds added without washing cells; (2) 5× wash—virus inoculum was removed 4hpi, cells were washed 5× with PBS and fresh medium containing compounds added; and (3) no wash Opt—infection were performed in serum-free OptiMem; virus inoculum was removed 4hpi and fresh medium containing compounds added without washing cells. FIG. 90 provides a comparison of the three different infection set-ups. FIG. 91 provides a comparison of two independent experiments.

SR-BI = biological target: T1, SR-BI (Mus musculus, UniProt Q61009); assay: DiI-HDL uptake assay with washout; assay type: cell-based, murine; design: expressed in transfected cells; host or cells: ldlA[mSR-BI], Chinese hamster ovary (CHO) cells lacking LDL receptor (Krieger Laboratory); conditions: compound pretreatment, wash, DiI-HDL without compound
T1 sequence (Q61009 1-509): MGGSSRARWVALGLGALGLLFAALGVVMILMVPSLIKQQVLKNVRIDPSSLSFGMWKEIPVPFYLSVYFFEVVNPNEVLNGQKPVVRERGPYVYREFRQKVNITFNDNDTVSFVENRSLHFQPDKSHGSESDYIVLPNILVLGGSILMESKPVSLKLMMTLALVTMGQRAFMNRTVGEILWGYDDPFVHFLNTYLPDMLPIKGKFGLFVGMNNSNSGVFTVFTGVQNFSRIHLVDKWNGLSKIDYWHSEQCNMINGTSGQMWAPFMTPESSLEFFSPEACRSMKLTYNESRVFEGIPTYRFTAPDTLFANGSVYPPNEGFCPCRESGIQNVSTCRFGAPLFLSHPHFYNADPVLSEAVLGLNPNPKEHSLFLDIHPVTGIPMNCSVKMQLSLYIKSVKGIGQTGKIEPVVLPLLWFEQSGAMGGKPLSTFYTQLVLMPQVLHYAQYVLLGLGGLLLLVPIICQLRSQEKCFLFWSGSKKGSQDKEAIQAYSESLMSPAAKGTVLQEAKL
Experimental: DiI-HDL Uptake Assay with Washout (SA 5: AID No. 588831)
This is a modification of the primary assay where cells are pretreated with compound but no compound is present during the DiI-HDL treatment period. ldlA[mSR-BI] cells were plated into 384-well plates at 30 μl per well and incubated overnight. Cells were treated with compound for 3 hours, then media were removed and the cells were washed with PBS before fresh lipoprotein-free media (Ham's F12/0.5% fatty acid-free Bovine Serum Albumin [BSA]/25 mM HEPES pH 7.4) was added with 10 μg protein/ml DiI-HDL. Cells took up the DiI via SR-BI over 3 hours in the absence of compound. After significant uptake of the DiI, the cells became fluorescent. The level of fluorescence correlates with the amount of DiI uptake and can be measured with a standard plate reader. The uptake of lipid (represented by DiI) was inhibited by the compound BLT-1.

murine SR-BI, isoform 1 = biological target: T2, murine SR-BI, isoform 1 (Mus musculus, UniProt Q61009); assay: DiI-HDL uptake assay (primary assay); assay type: cell-based; conditions: for IC50: ldlA[mSR-BI] cells, 3 hours with compound
T2 construct: expressed in transfected cells; host or cells: ldlA[mSR-BI], Chinese hamster ovary (CHO) cells lacking LDL receptor (Krieger Laboratory)
T2 sequence (Q61009 1-509): T1 sequence (Q61009 1-509)
Experimental: The following cell lines were used in this study: • ldlA[mSR-BI] is a Chinese hamster ovary (CHO) cell line that overexpresses murine SR-BI, isoform 1 (NP_058021) and was obtained from the (Krieger Laboratory). This cell line was used for the primary assay and several secondary assays. […] Assays DiI-HDL Uptake Assay (Primary Assay AID Nos. 488896, 493194, 540354 588392, 588553, 588548, 588754, 588828, 588833)
ldlA[mSR-BI] cells were plated into 384-well plates at 30 μl per well and incubated overnight. As a measurable surrogate for cholesterol uptake, human HDL particles were treated with the lipophilic fluorescent dye DiI and exposed to ldlA[mSR-BI] cells in lipoprotein-free media (Ham's F12/0.5% fatty acid-free Bovine Serum Albumin (BSA)/25 mM HEPES pH 7.4 plus 10 μg protein/ml DiI-HDL). Cells took up the DiI via SR-BI over 3 hours in the presence of compound. After significant uptake of the DiI, the cells became fluorescent. The level of fluorescence correlates with the amount of DiI uptake and can be measured with a standard plate reader (here a PerkinElmer EnVision plate reader was used). The uptake of lipid (represented by DiI) was inhibited by the positive control compound BLT-1 or with an excess of HDL untreated with DiI. Primary HTS data were analyzed in Genedata Screener Assay Analyzer, and were normalized against DMSO and the positive control (1 μM BLT-1). For the HTS, the average of two replicates was used to rank order activity and to choose compounds for retests. For dose studies, percent (%) activity was determined for each concentration and the concentration response curves (CRCs) were generated with Genedata Condeseo.
To identify novel inhibitors, SR-BI-mediated lipid uptake was measured in an engineered cell line that minimized potential uptake by other mechanisms, including via the LDL receptor (1). ldlA[mSR-BI] cells overexpress murine isoform 1 and selectively take up HDL lipid at similar levels as “has been reported for cultured mouse adrenal cells, perfused organs, and liver, adrenal gland and ovary in vivo” (1). This primary cell-based assay was used in a pilot screen that identified BLTs 1 through 5. The assay was slightly modified from the original protocol of Nieland et al. to increase throughput and to ease automation procedures.
Briefly, the plate reader was switched to a Perkin-Elmer EnVision, several washing steps were eliminated, and the cell number per well was reduced without impacting the robustness of the assay. The automated assay was first tested with a validation set of 2,240 compounds. These compounds were tested in duplicate with in-plate neutral (DMSO) and positive (1 μM BLT-1) controls. Robustness, reproducibility, and variability parameters were analyzed before initiating the full HTS. The HTS was run over the course of several weeks. Data were normalized relative to controls, and plate patterns were corrected using a multiplicative algorithm in Genedata Screener Assay Analyzer. For each compound, the average of the two replicates was determined and used for subsequent analysis.

SMILES | inhibition of HCV replication (in words) (hepatitis C virus (HCV); listed as 8) | inhibition of HCV replication (in words) (hepatitis C virus (HCV); listed as SRB1-8) | mean fluorescence intensity (MFI) of HCV positive cells (in words) (hepatitis C virus (HCV); dose dependence) | reversibility of inhibition / activity after washout (in words) (SR-BI) | reduction in signal in primary HTS (murine SR-BI, isoform 1; 1 μM, positive control) | IC50 (murine SR-BI, isoform 1) | inhibition of HCV replication (in words) (hepatitis C virus (HCV); listed as 5) | inhibition of HCV replication (in words) (hepatitis C virus (HCV); listed as SRB1-5) | inhibition of virus assembly/egress (in words) (hepatitis C virus (HCV); fluorescence intensity of HCV positive cells normalized to DMSO) | reversibility of inhibition / activity after washout (in words) (SR-BI; listed as compound of Formula (II)) | selectivity (murine SR-BI, isoform 1) | higher potency than ITX-5061 (murine SR-BI, isoform 1; AID No. 588828)
CCCCCCC1CCCC1=NNC(N)=S (centres unmarked) [BLT-1, reference compound] | able to inhibit HCV replication | inhibited viral replication | increased mean fluorescence intensity (MFI) of HCV positive cells in a dose dependent manner | nonreversible covalent modifier of SR-BI | > 2.2 fold | 10.8 nM | – | – | – | – | – | –
C[C@H](C(=O)NC1CCCC1)N(C(=O)Cn1nnc(-c2ccc3c(c2)OCO3)n1)C1CCCCC1 [ML279, (R)-2-(2-(5-(Benzo[d][1,3]dioxol-5-yl)-2H-tetrazol-2-yl)-N-cyclohexylacetamido)-N-cyclopentylpropanamide] | – | – | – | reversible binder of SR-BI; also recorded: greatly attenuated; also recorded: reversible inhibitor of HDL uptake; also recorded: showed no inhibition | – | 16 nM and 16.2 nM | able to inhibit HCV replication | inhibited viral replication | can also inhibit virus assembly/egress | reversible inhibitor | greater than 1000 | approximately 15 fold
